Laboratory results: US10167257B2, “Indole derivatives for use in medicine” (IOmet Pharma Ltd., priority 2014, dated 2019)

Assays:
[1] = biological target: T1, IDO (SKOV-3 cells) (Homo sapiens, UniProt P14902); assay: IDO cell-based assay (SKOV-3, IFNγ-induced), kynurenine production; details: SKOV-3 ovary adenocarcinoma cells, IFNγ 500 ng/ml, 500 μM L-Trp, 48 h, kynurenine by absorbance at 490 nm
T1 construct: This assay utilised cancer cells which expressed either TDO or IDO; host or cells: SKOV-3 ovary adenocarcinoma cells, IFNγ-induced
Excerpt: (§1) Two different types of assay were employed: 1. A TDO and IDO biochemical coupled assay which utilised recombinantly produced and purified TDO and IDO enzymes in combination with the enzyme formamidase. This coupled enzyme system allowed conversion of N-formylkynurenine produced by TDO or IDO activity to kynurenine which was then quantified by fluorescence following addition of Erhlich's Reagent. 2. A cell-based assay for detecting the effect of test compounds on kynurenine production in two different cancer cell types. This assay utilised cancer cells which expressed either TDO or IDO and as such was used as a means of testing compound activity at these two enzymes in a cell-based context. The protocols for these are set out below.
(§2) A172 human glioblastoma (ATCC) were grown in DMEM+2 mM L-glutamine medium supplemented with 10% foetal bovine serum and SKOV-3 ovary adenocarcinoma (ATCC) cells were grown in McCoys 5A+L-glutamax medium supplemented with 15% foetal bovine serum. On the day of assay, cells were detached using trypsin-EDTA (0.25% v/v), re-suspended in assay media (RPMI 1640 phenol red free+L-glutamine supplemented with 10% dialysed foetal bovine serum). A172 cells were seeded at 30K cells per well and SKOV-3 cells at 40K cells per well into 96-well plates containing test samples/vehicle control together with 500 μM L-Trp. Cells were then incubated for 48 h at 37° C., 5% CO2. In SK-OV-3 cells, IFNγ was also added at 500 ng/ml for the 48 h incubation in order to induce expression of IDO. Plates were centrifuged and the supernatant was removed and incubated for 5 min in the presence of 1% Erhlich's reagent. Kynurenine levels were then quantified by measuring absorbance at 490 nm.

[2] = biological target: T2, TDO (A172 cells) (Homo sapiens, UniProt P48775); assay: TDO cell-based assay (A172), kynurenine production; details: A172 human glioblastoma cells, 500 μM L-Trp, 48 h, kynurenine by absorbance at 490 nm
T2 construct: This assay utilised cancer cells which expressed either TDO or IDO; host or cells: A172 human glioblastoma cells
Excerpt: as §1, §2

T2 sequence (P48775 whole entry): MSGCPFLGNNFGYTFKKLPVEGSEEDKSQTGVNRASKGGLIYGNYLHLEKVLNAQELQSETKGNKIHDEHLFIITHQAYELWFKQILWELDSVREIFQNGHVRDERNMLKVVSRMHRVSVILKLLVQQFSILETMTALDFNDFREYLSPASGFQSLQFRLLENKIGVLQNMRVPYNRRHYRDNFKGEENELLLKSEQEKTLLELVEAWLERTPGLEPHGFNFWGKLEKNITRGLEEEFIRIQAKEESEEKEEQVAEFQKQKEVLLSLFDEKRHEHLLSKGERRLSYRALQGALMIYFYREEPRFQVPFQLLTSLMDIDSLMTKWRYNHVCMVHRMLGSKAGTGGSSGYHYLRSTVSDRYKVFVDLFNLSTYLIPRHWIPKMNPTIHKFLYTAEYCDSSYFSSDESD
T1 sequence (P14902 whole entry): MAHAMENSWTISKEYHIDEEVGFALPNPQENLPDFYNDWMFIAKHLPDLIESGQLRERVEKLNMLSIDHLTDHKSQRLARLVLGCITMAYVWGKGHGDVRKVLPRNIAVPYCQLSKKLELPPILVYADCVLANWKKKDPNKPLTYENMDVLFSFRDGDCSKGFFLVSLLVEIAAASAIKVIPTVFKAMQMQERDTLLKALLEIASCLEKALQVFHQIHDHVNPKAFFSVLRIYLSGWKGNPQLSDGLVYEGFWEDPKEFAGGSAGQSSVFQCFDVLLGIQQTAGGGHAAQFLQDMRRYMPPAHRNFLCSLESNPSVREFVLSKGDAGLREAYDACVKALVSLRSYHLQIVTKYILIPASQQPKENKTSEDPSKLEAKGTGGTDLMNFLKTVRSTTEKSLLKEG

| SMILES | IDO cellular assay (SKOV3) pIC50 [1] | TDO cellular assay (A172) pIC50 [2] | IC50 ([1]; read-out: IDO cellular assay (SKOV3) pIC50 (converted)) [µM] | IC50 ([2]; read-out: TDO cellular assay (A172) pIC50 (converted)) [µM] |
| --- | --- | --- | --- | --- |
| CC(NC(=O)c1cc2cc(F)ccc2[nH]1)c1cccc(F)c1 (stereo not drawn) [Compound 22] | ++ (++ = pIC50 5.00-<5.50) | + (+ = pIC50 4.50-<5.00) | – | – |
| CC(C)C(NC(=O)c1cc2cc(F)ccc2[nH]1)c1cccs1 (stereo not drawn) [Compound 23] | +++ (+++ = pIC50 ≥5.50) | − (− = pIC50 <4.50) | – | – |
| Cc1ccc(C(C)NC(=O)c2cc3cc(F)ccc3[nH]2)o1 (stereo not drawn) [Compound 24] | ++ (++ = pIC50 5.00-<5.50) | + (+ = pIC50 4.50-<5.00) | – | – |
| CC(NC(=O)c1cc2cc(Cl)ccc2[nH]1)c1ccccc1 (stereo not drawn) [Compound 25] | +++ (+++ = pIC50 ≥5.50) | +++ (+++ = pIC50 ≥5.50) | – | – |
| Cc1ccc2[nH]c(C(=O)NC(C)c3ccccc3)cc2c1 (stereo not drawn) [Compound 26] | +++ (+++ = pIC50 ≥5.50) | ++ (++ = pIC50 5.00-<5.50) | – | – |
| Cc1ccc2[nH]c(C(=O)NCc3ccc(F)cc3)cc2c1 [Compound 27] | ++ (++ = pIC50 5.00-<5.50) | − (− = pIC50 <4.50) | – | – |
| O=C(NCc1ccc(F)cc1)c1cc2cc(Cl)ccc2[nH]1 [Compound 28] | + (+ = pIC50 4.50-<5.00) | − (− = pIC50 <4.50) | – | – |
| COc1ccc(CNC(=O)c2cc3cc(F)ccc3[nH]2)cc1 [Compound 29] | + (+ = pIC50 4.50-<5.00) | − (− = pIC50 <4.50) | – | – |
| O=C(NCc1cccc(Cl)c1)c1cc2ccccc2[nH]1 [Compound 30] | + (+ = pIC50 4.50-<5.00) | − (− = pIC50 <4.50) | – | – |
| O=C(NCc1ccc(F)cc1Cl)c1cc2ccccc2[nH]1 [Compound 31] | + (+ = pIC50 4.50-<5.00) | − (− = pIC50 <4.50) | – | – |
| O=C(NCc1ccc(F)c(Cl)c1)c1cc2ccccc2[nH]1 [Compound 32] | ++ (++ = pIC50 5.00-<5.50) | − (− = pIC50 <4.50) | – | – |
| O=C(NCc1cccc(Cl)c1)c1cc2cc(Cl)ccc2[nH]1 [Compound 33] | ++ (++ = pIC50 5.00-<5.50) | − (− = pIC50 <4.50) | – | – |
| O=C(NCc1ccc(Cl)cc1)c1cc2cc(Cl)ccc2[nH]1 [Compound 34] | +++ (+++ = pIC50 ≥5.50) | − (− = pIC50 <4.50) | – | – |
| O=C(NCc1ccc(F)c(Cl)c1)c1cc2cc(Cl)ccc2[nH]1 [Compound 35] | + (+ = pIC50 4.50-<5.00) | − (− = pIC50 <4.50) | – | – |
| CC(NC(=O)c1cc2cc(Cl)ccc2[nH]1)c1ccc(F)cc1 (stereo not drawn) [Compound 36] | +++ (+++ = pIC50 ≥5.50) | + (+ = pIC50 4.50-<5.00) | – | – |
| CC(NC(=O)c1cc2ccccc2[nH]1)c1ccccn1 (stereo not drawn) [Compound 37] | + (+ = pIC50 4.50-<5.00) | − (− = pIC50 <4.50) | – | – |
| Cc1c(C(=O)N[C@H](C)c2ccccc2)[nH]c2ccc(F)cc12 [Compound 38] | ++ (++ = pIC50 5.00-<5.50) | + (+ = pIC50 4.50-<5.00) | – | – |
| C[C@H](c1ccccc1)N(C)C(=O)c1cc2cc(F)ccc2[nH]1 [Compound 39] | ++ (++ = pIC50 5.00-<5.50) | − (− = pIC50 <4.50) | – | – |
| C[C@H](NC(=O)c1cc2cc(F)ccc2[nH]1)c1ccccc1 [Compound 40] | + (+ = pIC50 4.50-<5.00) | ++ (++ = pIC50 5.00-<5.50) | – | – |
| O=C(Nc1cccc2ncccc12)c1cc2cc(F)ccc2[nH]1 [Compound 41] | +++ (+++ = pIC50 ≥5.50) | − (− = pIC50 <4.50) | – | – |
| CC(NC(=O)c1cc2cc(F)ccc2[nH]1)c1ccccn1 (stereo not drawn) [Compound 42] | ++ (++ = pIC50 5.00-<5.50) | − (− = pIC50 <4.50) | – | – |
| C[C@@H](NC(=O)c1cc2cc(F)ccc2[nH]1)c1ccccc1 [Compound 43] | +++ (+++ = pIC50 ≥5.50) | ++ (++ = pIC50 5.00-<5.50) | – | – |
| C[C@@H](NC(=O)c1cc2ccc(F)cc2[nH]1)c1ccccc1 [Compound 44] | +++ (+++ = pIC50 ≥5.50) | + (+ = pIC50 4.50-<5.00) | – | – |

| SMILES | IDO cellular assay (SKOV3) pIC50 [1] | TDO cellular assay (A172) pIC50 [2] | IC50 ([1]; read-out: IDO cellular assay (SKOV3) pIC50 (converted)) [µM] | IC50 ([2]; read-out: TDO cellular assay (A172) pIC50 (converted)) [µM] |
| --- | --- | --- | --- | --- |
| C[C@H](NC(=O)c1cc2ccc(F)cc2[nH]1)c1ccccc1 [Compound 45] | + (+ = pIC50 4.50-<5.00) | − (− = pIC50 <4.50) | – | – |
| C[C@@H](NC(=O)c1cc2cc(F)ccc2n1C)c1ccccc1 [Compound 46] | ++ (++ = pIC50 5.00-<5.50) | − (− = pIC50 <4.50) | – | – |
| C[C@@H](NC(=O)c1cc2ccc(Cl)cc2[nH]1)c1ccccc1 [Compound 47] | ++ (++ = pIC50 5.00-<5.50) | ++ (++ = pIC50 5.00-<5.50) | – | – |
| C[C@@H](NC(=O)c1cc2cc(Cl)ccc2[nH]1)c1ccccc1 [Compound 48] | – | – | ≤ 3.16 | 3.16 to 10 |
| C[C@H](NC(=O)c1cc2ccc(Cl)cc2[nH]1)c1ccccc1 [Compound 49] | ++ (++ = pIC50 5.00-<5.50) | + (+ = pIC50 4.50-<5.00) | – | – |
| C[C@H](NC(=O)c1cc2cc(Cl)ccc2[nH]1)c1ccccc1 [Compound 50] | +++ (+++ = pIC50 ≥5.50) | +++ (+++ = pIC50 ≥5.50) | – | – |
| O=C(Nc1cccc2ccccc12)c1cc2cc(F)ccc2[nH]1 [Compound 51] | +++ (+++ = pIC50 ≥5.50) | − (− = pIC50 <4.50) | – | – |
| O=C(NCc1cc2cc(F)ccc2[nH]1)c1ccccc1 [Compound 52] | + (+ = pIC50 4.50-<5.00) | + (+ = pIC50 4.50-<5.00) | – | – |
| C[C@@H](NC(=O)c1cc2c([nH]1)CCCC2)c1ccccc1 [Compound 53] | + (+ = pIC50 4.50-<5.00) | − (− = pIC50 <4.50) | – | – |
| CC(NC(=O)c1cc2cc(F)ccc2[nH]1)c1cccnc1 (stereo not drawn) [Compound 54] | + (+ = pIC50 4.50-<5.00) | − (− = pIC50 <4.50) | – | – |
| C[C@H](NC(=O)c1cc2c([nH]1)CCCC2)c1ccccc1 [Compound 55] | − (− = pIC50 <4.50) | + (+ = pIC50 4.50-<5.00) | – | – |
| C[C@H](NC(=O)c1cc2c(F)cccc2[nH]1)c1ccccc1 [Compound 56] | + (+ = pIC50 4.50-<5.00) | + (+ = pIC50 4.50-<5.00) | – | – |
| O=S(=O)(NCc1cc2cc(F)ccc2[nH]1)c1ccccc1 [Compound 57] | − (− = pIC50 <4.50) | + (+ = pIC50 4.50-<5.00) | – | – |
| CC(NC(=O)c1cc2cc(F)ccc2[nH]1)c1ccncc1 (stereo not drawn) [Compound 58] | ++ (++ = pIC50 5.00-<5.50) | − (− = pIC50 <4.50) | – | – |
| C[C@@H](c1ccccc1)N(C)C(=O)c1cc2cc(F)ccc2[nH]1 [Compound 59] | + (+ = pIC50 4.50-<5.00) | − (− = pIC50 <4.50) | – | – |
| Cc1c(C(=O)N[C@@H](C)c2ccccc2)[nH]c2ccc(F)cc12 [Compound 60] | + (+ = pIC50 4.50-<5.00) | + (+ = pIC50 4.50-<5.00) | – | – |
| C[C@@H](NC(=O)c1cc2cccc(F)c2[nH]1)c1ccccc1 [Compound 61] | +++ (+++ = pIC50 ≥5.50) | +++ (+++ = pIC50 ≥5.50) | – | – |
| C[C@@H](NC(=O)c1cc2c(F)cccc2[nH]1)c1ccccc1 [Compound 62] | +++ (+++ = pIC50 ≥5.50) | +++ (+++ = pIC50 ≥5.50) | – | – |
| C[C@H](NC(=O)c1cc2cccc(F)c2[nH]1)c1ccccc1 [Compound 63] | + (+ = pIC50 4.50-<5.00) | + (+ = pIC50 4.50-<5.00) | – | – |
| O=C(Nc1cccc2ncccc12)c1cc2ccc(F)cc2[nH]1 [Compound 64] | ++ (++ = pIC50 5.00-<5.50) | ++ (++ = pIC50 5.00-<5.50) | – | – |
| O=C(Nc1cccc2ccccc12)c1cc2ccc(F)cc2[nH]1 [Compound 65] | +++ (+++ = pIC50 ≥5.50) | − (− = pIC50 <4.50) | – | – |
| O=C(NC1CCCc2ccccc21)c1cc2ccccc2[nH]1 (stereo not drawn) [Compound 66] | ++ (++ = pIC50 5.00-<5.50) | − (− = pIC50 <4.50) | – | – |
